This is an account of results in patent publication US20240025892A1 (priority 2020, published 2024).

Where two headings read alike, the source gives them in different places. A value given as a limit tells only on which side of the number the result lay.

The target in data set [1] is Recombinant SIK2 (Homo sapiens (Human), UniProt Q9H0K1). Nature of the data set: biochemical. The protocol:
Assays were performed in base reaction buffer (20 mM Hepes (pH 7.5), 10 mM MgCl2, 1 mM EGTA, 0.02% Brij35, 0.02 mg/mL BSA, 0.1 mM Na3VO4, 2 mM DTT, 1% DMSO). Compounds were dissolved in 100% DMSO in a 10 mM stock. […] Assays were performed for 20 minutes at room temperature, after which time ^33P-ATP (10 μCi/μL) was added followed by incubation for another 120 minutes at room temperature. Thereafter, radioactivity incorporated into the pEY peptide substrate was detected by filter-binding method. Kinase activity data were expressed as the percent remaining kinase activity in test samples compared to DMSO reactions. IC50 values and curve fits were obtained using Prism (GraphPad Software).

Data set [2] concerns RANKL. Nature of the data set: RANKL gene expression in Ocy454 cells (RT-qPCR).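 Further: Ocy454 cells moved to 37 °C for osteocytic differentiation before compound exposure, RANKL mRNA by SYBR Green qRT-PCR, 2^−ΔΔCT with β-actin normalization, duplicate wells.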 The following applies: maximal RANKL fold induction versus DMSO, four hours.
The subject of data set [3] is CRTC2 (TORC2). Nature of the data set: CRTC2 nuclear translocation (PathHunter U2OS). The class given is cell-based. The following applies: maximal CRTC2 nuclear translocation, U2OS cells, 90 minutes, maximum dose 10 μM. The text has this: PathHunter® Nuclear Translocation cell lines are engineered to co-express two fusion proteins: a) Enzyme Donor (ED) tagged target protein; b) an Enzyme Acceptor (EA) tagged TAZ domain, derived from the CBP/P300 transcription factor, that localizes to the nucleus. Activation of the signaling pathway induces translocation of the ED-tagged target protein into the nucleus, which will force complementation of the two enzyme fragments, and result in the formation of a functional enzyme that will hydrolyze substrate and generate a chemiluminescent signal. U2OS CRTC2 (TORC2) translocation assays were performed in 384 well plates at Eurofins DiscoverX (Freemont, CA). Cells were treated with compounds for 90 minutes in experimental duplicates in 5 point dose response format (4-fold serial dilutions with a maximum dose of 10 μM) followed by […] readout on an Envision 2104 Multilabel Reader. In all experiments, forskolin was used as a positive control and maximal CRTC2 nuclear translocation induced by each compound is expressed as a percentage of the signal stimulated by forskolin.
Representative data are shown in FIG. 4A and presented as percent of the positive control (forskolin) signal.

Setting [4] is: recombinant SIK2 2.5 nM, 1 μM ATP, read-out: SIK2 IC50.

Chain of Recombinant SIK2 (Q9H0K1 whole entry): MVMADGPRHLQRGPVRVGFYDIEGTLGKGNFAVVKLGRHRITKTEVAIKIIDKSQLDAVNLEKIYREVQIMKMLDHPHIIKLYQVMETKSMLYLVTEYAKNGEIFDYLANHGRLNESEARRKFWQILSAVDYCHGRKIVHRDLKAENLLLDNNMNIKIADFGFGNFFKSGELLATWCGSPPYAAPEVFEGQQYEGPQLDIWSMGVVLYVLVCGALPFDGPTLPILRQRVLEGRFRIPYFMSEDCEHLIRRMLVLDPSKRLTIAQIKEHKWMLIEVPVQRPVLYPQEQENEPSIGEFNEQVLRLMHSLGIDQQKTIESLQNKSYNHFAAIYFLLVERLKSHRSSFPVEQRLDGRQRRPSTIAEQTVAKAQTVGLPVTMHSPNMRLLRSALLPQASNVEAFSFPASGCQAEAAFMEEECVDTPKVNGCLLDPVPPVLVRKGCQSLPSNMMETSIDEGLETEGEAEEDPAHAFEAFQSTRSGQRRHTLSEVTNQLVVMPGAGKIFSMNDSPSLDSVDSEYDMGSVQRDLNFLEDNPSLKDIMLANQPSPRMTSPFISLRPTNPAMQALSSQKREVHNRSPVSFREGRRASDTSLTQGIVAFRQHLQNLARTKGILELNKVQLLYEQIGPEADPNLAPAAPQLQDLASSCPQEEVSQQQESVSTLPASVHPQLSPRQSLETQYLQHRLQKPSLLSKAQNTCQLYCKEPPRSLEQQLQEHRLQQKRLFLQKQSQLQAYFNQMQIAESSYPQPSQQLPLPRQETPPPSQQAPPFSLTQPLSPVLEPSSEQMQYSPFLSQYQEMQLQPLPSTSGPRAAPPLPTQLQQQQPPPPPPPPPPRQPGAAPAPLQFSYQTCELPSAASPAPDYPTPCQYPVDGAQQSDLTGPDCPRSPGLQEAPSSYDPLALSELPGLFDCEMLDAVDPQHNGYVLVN

The term IC50 denotes the midpoint of a concentration-inhibition curve. `COc1cc(-c2cnc3cc(-c4cnn(C5CC5)c4)ccn23)cc(OC)c1C(=O)NN` [Cmpd. 55A, 4-(7-(1-cyclopropyl-1H-pyrazol-4-yl)imidazo[1,2-a]pyridin-3-yl)-2,6-dimethoxybenzohydrazide]: the IC50 in data set [1] (initial in vitro testing, read-out: SIK2 inhibition IC50) is less than 0.1 nM. Consider `Cc1cn(-c2cccc3ccc(-n4cnc5cc(OCC6(C)COC6)ccc54)nc23)cn1` [Example 1, 8-(4-Methylimidazol-1-yl)-2-[5-[(3-methyloxetan-3-yl)methoxy]benzimidazol-1-yl]quinoline], for which the IC50 in data set [1] (setting [4]) turned out to be 30.7 nM. The “RANKL Fold Induction” value in data set [2] turned out to be 3.08 fold. `CC1(COc2ccc3c(c2)ncn3-c2ccc3cccc(N4CCC5(CCNC5)C4)c3n2)COC1` (centres unmarked) [Example 6, 2-(5-((3-methyloxetan-3-yl)methoxy)-1H-benzo[d]imidazol-1-yl)-8-(2,7-diazaspiro[4.4]nonan-2-yl)quinoline]: in data set [3], the “CRTC2 Efficacy (% of forskolin)” value was 127.8 % of forskolin. For the same compound, the IC50 in data set [1] (setting [4]) was 5.75 nM.

Take `CC1(COc2ccc3c(c2)ncn3-c2ccc3cccc(OC4CNC4)c3n2)COC1` [Example 9, 8-(azetidin-3-yloxy)-2-(5-((3-methyloxetan-3-yl)methoxy)-1H-benzo[d]imidazol-1-yl)quinoline]: the IC50 in data set [1] (setting [4]) was 24.6 nM. Moreover, the “RANKL Fold Induction” value in data set [2] came out at 9.69 fold. The like results for `CN1CC(Oc2cccc3ccc(-n4cnc5cc(OCC6(C)COC6)ccc54)nc23)C1` [Example 11, 8-((1-Methylazetidin-3-yl)oxy)-2-(5-((3-methyloxetan-3-yl)methoxy)-1H-benzo[d]imidazol-1-yl)quinoline] were, in that order, 22.7 nM and 1.38 fold.

Regarding `CC1(COc2ccn3c(-c4ccc5cccc(N6CCC(N)CC6)c5n4)cnc3c2)COC1` [Example 13, 1-(2-(7-((3-Methyloxetan-3-yl)methoxy)imidazo[1,2-a]pyridin-3-yl)quinolin-8-yl)piperidin-4-amine], the “CRTC2 Efficacy (% of forskolin)” value in data set [3] was 140.6 % of forskolin. Moreover, the IC50 in data set [1] (setting [4]) stood at 4.19 nM. Regarding `Cn1cnc(-c2cccc3ccc(-n4cnc5cc(OCC6(C)COC6)ccc54)nc23)c1` [Example 18, 8-(1-Methyl-1H-imidazol-4-yl)-2-(5-((3-methyloxetan-3-yl)methoxy)-1H-benzo[d]imidazol-1-yl)quinoline], the IC50 in data set [1] (setting [4]) is 185 nM. Also, the “RANKL Fold Induction” value in data set [2] is listed as 7.49 fold. For the compound `N#Cc1ccc(-c2cnc3cc(C(=O)NCc4ccnnc4)ccn23)cc1` [Example 20, 3-(4-cyanophenyl)-N-(pyridazin-4-ylmethyl)imidazo[1,2-a]pyridine-7-carboxamide], the “CRTC2 Efficacy (% of forskolin)” value in data set [3] is on record as 9.4 % of forskolin. The IC50 in data set [1] (setting [4]) turned out to be 109 nM. The like results for `N#Cc1ccc(-c2cnc3cc(C(=O)NCc4cnccn4)ccn23)cc1` [Example 21, 3-(4-cyanophenyl)-N-(pyrazin-2-ylmethyl)imidazo[1,2-a]pyridine-7-carboxamide] were, in that order, 9.9 % of forskolin and 118 nM. Take `N#Cc1ccc(-n2cnc3cc(C(=O)NCc4cccnc4)ccc32)cc1` [Example 32, 1-(4-cyanophenyl)-N-(3-pyridylmethyl)benzimidazole-5-carboxamide]: the “CRTC2 Efficacy (% of forskolin)” value in data set [3] was 10.6 % of forskolin.

Regarding `COc1cc(-c2cnc3cc(OCC4(C)COC4)ccn23)cc(OC)c1C#N` [Example 40, 2,6-dimethoxy-4-(7-((3-methyloxetan-3-yl)methoxy)imidazo[1,2-a]pyridin-3-yl)benzonitrile], the IC50 in data set [1] (setting [4]) came to 9.87 nM. As to `CCn1cc(-c2ccc3c(c2)ncn3-c2ccc(C#N)cc2)cn1` [Example 43, 4-[5-(1-Ethylpyrazol-4-yl)benzimidazol-1-yl]benzonitrile], in data set [1] (setting [4]), the IC50 came to 5.89 nM. The “RANKL Fold Induction” value in data set [2] was 7.09 fold. Consider `N#Cc1ccc(-n2cnc3cc(-c4cnn(C5CC5)c4)ccc32)cc1` [Example 44, 4-(5-(1-Cyclopropyl-1H-pyrazol-4-yl)-1H-benzo[d]imidazol-1-yl)benzonitrile], for which the IC50 in data set [1] (setting [4]) was determined as 2.34 nM. Moreover, in data set [2], the “RANKL Fold Induction” value worked out at 3.07 fold. The like results for `CCn1cc(-c2ccn3c(-c4ccc(C#N)nc4)cnc3c2)cn1` [Example 46, 5-(7-(1-ethyl-1H-pyrazol-4-yl)imidazo[1,2-a]pyridin-3-yl)picolinonitrile] were, in that order, 14 nM and 3.44 fold. As for `N#Cc1ccc(-c2cnc3cc(-n4cnc(C5CC5)c4)ccn23)cc1` [Example 48, 4-[7-(4-Cyclopropylimidazol-1-yl)imidazo[1,2-a]pyridin-3-yl]benzonitrile], the half-inhibitory concentration (IC50) in data set [1] (setting [4]) was 7.65 nM. For `N#Cc1ccc(-c2cnc3cc(-c4cnn(C5COC5)c4)ccn23)cc1` [Example 50, 4-(7-(1-(oxetan-3-yl)-1H-pyrazol-4-yl)imidazo[1,2-a]pyridin-3-yl)benzonitrile], the IC50 in data set [1] (setting [4]) is 2.34 nM. Also, the “RANKL Fold Induction” value in data set [2] worked out at 15.84 fold. Turning to `N#Cc1ccc(-c2cnn3cc(-c4cnn(C5CC5)c4)ccc23)cc1` [Example 54, 4-(6-(1-cyclopropyl-1H-pyrazol-4-yl)pyrazolo[1,5-a]pyridin-3-yl)benzonitrile], the IC50 in data set [1] (setting [4]) stood at 2.24 nM. In data set [2], the “RANKL Fold Induction” value is recorded as 9.07 fold.

For `CCc1nnc(-c2c(F)cc(-c3cnc4cc(-c5cnn(C)c5)ccn34)cc2F)o1` [Example 58, 2-(2,6-difluoro-4-(7-(1-methyl-1H-pyrazol-4-yl)imidazo[1,2-a]pyridin-3-yl)phenyl)-5-ethyl-1,3,4-oxadiazole], the IC50 in data set [1] (setting [4]) was found to be 1080 nM. The “RANKL Fold Induction” value in data set [2] is on record as 1.26 fold. As for `CCc1nnc(-c2c(Cl)cc(-c3cnc4cc(-c5cnn(C)c5)ccn34)cc2Cl)o1` [Example 59, 2-(2,6-dichloro-4-(7-(1-methyl-1H-pyrazol-4-yl)imidazo[1,2-a]pyridin-3-yl)phenyl)-5-ethyl-1,3,4-oxadiazole], the IC50 in data set [1] (setting [4]) worked out at 270 nM. Turning to `CCn1cc(-c2cnc3c(-c4ccc(C#N)cc4)cnn3c2)cn1` [Example 63, 4-[6-(1-Ethylpyrazol-4-yl)pyrazolo[1,5-a]pyrimidin-3-yl]benzonitrile], in data set [1] (setting [4]), the IC50 turned out to be 3.4 nM. Also, the “RANKL Fold Induction” value in data set [2] came to 0.89 fold. The like results for `N#Cc1ccc(-c2cnn3cc(-c4cnn(C5CC5)c4)cnc23)cc1` [Example 64, 4-[6-(1-Cyclopropylpyrazol-4-yl)pyrazolo[1,5-a]pyrimidin-3-yl]benzonitrile] were, in that order, 8.8 nM and 0.47 fold. As for `CCn1cc(-c2c(OC)cc(-c3cnn4cc(-c5cnn(C6CC6)c5)ccc34)cc2OC)nn1` [Example 65, 6-(1-Cyclopropylpyrazol-4-yl)-3-[4-(1-ethyltriazol-4-yl)-3,5-dimethoxy-phenyl]pyrazolo[1,5-a]pyridine], the IC50 in data set [1] (setting [4]) turned out to be 23.7 nM.

Take `N#Cc1ccc(-c2cnc3cc(-c4cn(C5CC5)nn4)ccn23)cc1` [Example 66, 4-[7-(1-Cyclopropyltriazol-4-yl)imidazo[1,2-a]pyridin-3-yl]benzonitrile]: the IC50 in data set [1] (setting [4]) was 37 nM.

As to `CCn1nnc(-c2ccn3c(-c4ccc(C#N)cc4)cnc3c2)n1` [Example 67, 4-[7-(2-Ethyltetrazol-5-yl)imidazo[1,2-a]pyridin-3-yl]benzonitrile], the IC50 in data set [1] (setting [4]) is 227 nM. For the same compound, the “RANKL Fold Induction” value in data set [2] is 0.47 fold.
